How the values were obtained:
[1] = system: mutant SHP2 (E76K) in live cells; design: method as in PMID 31953320, PMID 32744526; conditions: cellular thermal shift assay; cited from earlier work
[2] = target: T1, SHP2-E76K (Homo sapiens, UniProt Q06124, E76K); assay: Michaelis–Menten kinetics and mode of inhibition; format: biochemical
T1 construct: Recombinant human full-length SHP2 (1–594) WT and E76K mutants; made in house
T1 sequence (Q06124 1-593 E76K): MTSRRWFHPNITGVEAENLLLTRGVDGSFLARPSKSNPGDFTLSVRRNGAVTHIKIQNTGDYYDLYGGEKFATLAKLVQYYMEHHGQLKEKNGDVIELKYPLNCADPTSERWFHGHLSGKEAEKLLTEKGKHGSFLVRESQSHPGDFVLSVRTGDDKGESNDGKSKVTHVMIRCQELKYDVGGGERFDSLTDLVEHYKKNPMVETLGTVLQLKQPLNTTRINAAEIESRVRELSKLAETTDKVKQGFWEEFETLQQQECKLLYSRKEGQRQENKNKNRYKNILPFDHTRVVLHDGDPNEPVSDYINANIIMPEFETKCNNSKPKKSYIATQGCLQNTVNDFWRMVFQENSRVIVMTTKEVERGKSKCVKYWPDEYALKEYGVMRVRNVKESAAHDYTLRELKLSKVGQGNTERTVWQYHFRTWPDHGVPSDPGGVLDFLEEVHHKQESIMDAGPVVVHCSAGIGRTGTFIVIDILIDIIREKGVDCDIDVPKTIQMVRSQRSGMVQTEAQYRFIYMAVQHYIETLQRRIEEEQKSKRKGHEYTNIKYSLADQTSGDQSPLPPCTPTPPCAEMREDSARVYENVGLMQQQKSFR
Description: We previously reported furanylsalicylic acids as potent and selective inhibitors of the Yersinia tyrosine phosphatase YopH ([37], [38]). […] Thus, we tested whether replacement of the neutral 2-hydroxybenzamide moiety with the negatively charged salicylate would be beneficial for the potency of this scaffold against SHP2. […] To corroborate this postulate, we subjected SBI-4668 to Michaelis–Menten kinetic studies with SHP2-E76K to determine its mode of inhibition (Fig. 3, A and B). Using nonlinear regression, initial rates at various inhibitor and substrate concentrations were fitted to the Michaelis–Menten equations for competitive, noncompetitive, uncompetitive, and mixed inhibitions. Fitting models were then compared using Akaike's Information Criterion (AIC), and inhibition mode probabilities were calculated from the differences between the corresponding second-order corrected AIC scores as previously described ([38], [39]).
SBI-4668 was tested with SHP2-E76K using a similar assay format as described previously. SBI-4668 or vehicle (DMSO) was spotted in triplicate into a black Greiner FLUOTRAC 200 384-well microplate (catalog no.: #781076; Greiner) using an Echo 555 Liquid Handler (Labcyte, Inc). […] Fluorescence intensity was measured in kinetic mode as described previously. The initial rates were determined from the linear progression curves of each SHP2-E76K reaction. […]

## O=C(Nc1ccccc1)c1cc(-c2ccc(/C=C3\Sc4ccccc4C3=O)o2)ccc1O [SBI-4668, (Z)-2-Hydroxy-5-(5-((3-oxobenzo[b]thiophen-2(3H)-ylidene)methyl)furan-2-yl)-N-phenylbenzamide]
[1]
  cellular target engagement with mutant SHP2: direct target engagement
[2]; AIC model comparison
  mode of inhibition: either a noncompetitive or a mixed inhibition mechanism
[2]; DiFMUP, read-out: inhibition constant (Ki) for noncompetitive inhibition
  Ki: 1800 nM

— article PMC8760490, “Discovery of novel furanylbenzamide inhibitors that target oncogenic tyrosine phosphatase SHP2 in leukemia cells” (The Journal of Biological Chemistry, 2021)
